Molecules are shown by their SMILES. Values joined by “and” are separate entries in the source; they are usually repeats but may differ in a detail not shown here. Identical values can stand only once.

This is an account of results in patent US12102432B2, “Uses of transdermal glomerular filtration rate measurement in continuous renal replacement therapy” (MediBeacon Inc., priority 2018, dated 2024).

Series [1] is described as follows: Adsorption of MB-102 to CRRT apparatus, in vitro CVVH model. It is filed as in vitro ADME, bovine. The settings on record: for mean percent change at the end of experiment: average of 6 experiments, 60 min; for percent change at the end of each experiment: single experiments 1-6, initial to 60 min, blood flow 200 mL/min, Quf 33 mL/min. Here is the method: As an initial step, it was determined if the compound MB-102 adsorbs onto the hemodiafilter, tubing or other parts of the CRRT instrument. This study used a continuous venovenous hemofiltration (CVVH) configuration to assess MB-102 adsorptive clearance with a previously validated in vitro CVVH model using 1 L of pH regulated, citrate-anti-coagulated bovine blood. Using a Braun DIAPACT™ CRRT system, two different hemodiafilters were tested: the HF1400 and the M150 hemodiafilters. New bovine blood, hemodiafilters, and CRRT tubing sets were used in each experiment. The blood was continuously stirred and maintained at 37° C. in a water bath during all experiments. Reconstituted MB-102 was added to the blood to achieve a final concentration of ˜6.2 mg/L. Urea was used as a control and added to the blood to produce a blood urea nitrogen (BUN) concentration of ˜75 mg/dL. Blood flow rates of 200 mL/min with an ultrafiltration rate (Quf) of 33 mL/min were tested. This maximized MB-102 contact with the membranes, both on the blood side and via convection through the hemodiafilter membrane. A closed system was developed to maintain a constant volume in the extracorporeal system. The effluent was used as the replacement fluid which was returned to the blood as a post-filter replacement fluid to maintain a constant blood volume. The CRRT instrument was primed with normal saline before operation, consequently the urea and MB-102 dilution caused by the residual priming solution was accounted for. Blood samples were collected from the pre-filter port at 0 (baseline), 5 (at which time mixing was complete), 10, 20, 30, and 60 minutes. Each experiment was repeated six times with new hemodiafilters and tubing sets.
Equations used to calculate the dilution factor and adsorption are as follows:
[formula] wherein C0 is the concentration of MB-102 in the pre-filter at time=0 minutes; and C60 is the concentration of MB-102 in the pre-filter at time=60 minutes.
[formula] where [Urea0] is the urea concentration in the pre-filter at time=0 minutes; and [Urea60] is the urea concentration in the pre-filter at time=60 minutes.
All blood samples were collected and centrifuged at 3000 rpm for 10 minutes. The plasma and effluent samples were transferred to cryovials in duplicate and stored at −80° C. until analysis. BUN concentrations were analyzed with Advia 1800 (Siemens Healthcare Diagnostic Inc., Tarrytown, N.Y., USA) having a lower limit of quantification of 5 mg/dL. […]

A short description of series [2]: In vitro continuous hemofiltration (CVVH) model, sieving coefficient. In kind it is in vitro ADME, bovine. The settings on record: CVVH. The procedure: The procedure for the CVVH study was conducted using the model CVVH system illustrated in FIG. 5. The CLTM of urea and MB-102 were evaluated with different blood flow rates, ultrafiltration rate (Quf) and hemodiafilters (Table 1). In a closed-loop system, the formed effluent was returned to the blood as a post-filter replacement fluid downstream from the post-hemodiafilter blood sampling port. Pre- and post-hemodiafilter blood samples, and effluent samples were collected concurrently. Six experiments were conducted for each hemodiafilter, and new hemodiafilters and CRRT apparatus were used for each experiment. Sieving coefficient (SC) and CLTM were calculated as follows:
[formula] where Sc is the sieving coefficient; Cuf is the concentration in the effluent; Ca is the concentration of the solute in the pre-filter; and Cv is the concentration of the solute in the post-filter. CLconv=SC×QUF Equation (4) wherein CLconv is the convective clearance for the post-filter replacement; QUF is the ultrafiltration rate.
(§1) All blood samples were collected and centrifuged at 3000 rpm for 10 minutes. The plasma and effluent samples were transferred to cryovials in duplicate and stored at −80° C. until analysis. BUN concentrations were analyzed with Advia 1800 (Siemens Healthcare Diagnostic Inc., Tarrytown, N.Y., USA) having a lower limit of quantification of 5 mg/dL.
(§2) Similarly, six CVVH and CVVHD experiments with each hemodiafilter were used to detect a 25% difference in MB-102 CLTM between hemodiafilters. Assumptions used in these calculations included: a power of 90% and a standard deviation of 10% with a significance level of p<0.05. A two-tailed, unpaired t-test was used to compare differences between the two hemodiafilters, and the analysis of variance was used to compare different QUF and Qd within each hemodiafilter type.

The nature of series [3]: In vitro continuous hemodialysis (CVVHD) model, saturation coefficient. The settings on record: for Saturation coefficient (mean ± SD): CVVHD, blood flow 200 mL/min. In kind it is in vitro ADME, bovine. The procedure: For CVVHD experiments, the CLTM was assessed using a previously validated in vitro CVVHD model as illustrated in FIG. 6. Commonly used effluent flow rates of 16, 33, 50, and 100 mL/min, and a blood flow rate of 200 mL/min were used. Effluent was prepared according to directions from the manufacturer by mixing sodium bicarbonate powder (NATURALYTE® 4000, Fresenius Medical Care, Waltham, Mass., USA) with distilled water in a 45:1 ratio. After adding MB-102 and urea to the blood, it was recirculated through the circuit for 5 min for uniform coating of the extracorporeal circuit. A single-pass mode of the CVVHD procedure with four different flow rates was run in random order for each hemodiafilter. Blood samples were collected from the pre- and post-filter ports, and spent effluent samples were taken from the effluent port 5 min after initiation of the CVVHD experiments at all four effluent flow rates. These experiments were conducted on 6 new hemodiafilters and CRRT tubing sets. Saturation coefficient (SA) and CLTM were calculated as follows:
[formula] CLdiff=(SA×Qd) Equation (6)
where SA is the saturation coefficient; CUF is the concentration in the effluent; Ca is the concentration of the solute in the pre-filter; CV is the concentration of the solute in the post-filter; CLdiff is the diffusion clearance for post-filter replacement; Qd is the effluent flow rate.
as §1, §2

Series [4] is described as follows: Meropenem infusion in porcine model before CRRT, blood concentration. In kind it is in vivo, Swine. The settings on record: infused for 30 minutes. The procedure:
Swine (3 male and 3 female, for both CVVH and CVVHD modalities) weighing 35-40 kg were used. In this model, a total functional nephrectomy was achieved by ligation of all renal arteries. Animals were inspected by professional veterinary staff within 48 hours of arrival. Any underlying infections or parasitism was treated based on veterinary recommendations. After taking a pre-MB-102 blood sample (baseline), a dose of 6 mg/kg of MB-102 was injected as a single bolus, followed by a 90 minute period of equilibration, to allow for MB-102 systemic redistribution (see FIGS. 7 and 13 for equilibration of fluorescent signal detected by the renal monitoring assembly). Thirty minutes after the MB-102 injection, Meropenum was infused for 30 minutes, which reached a peak concentration in blood ˜1 hr after the start of the infusion. […] Samples collected during these periods, along with the baseline (BSL) sample taken before the MB-102 dose, were assayed, and measured values were used in calculations to compare clearance rates with real-time MB-102 clearance measurements. […] A similar sample collection time-course was initiated at the high flow rate for both the low and high effluent flow rate data sets (seven sample time points at three circuit sites), allowing for similar comparisons of real-time and calculated clearance rates.

On to `NC(N)=O` [Urea, reference compound], for which the “mean percent change at the end of experiment” value in series [1] (HF1400 hemodiafilter) stood at 19.5%; in series [1] (M150 hemodiafilter), 19.3%. Also, the “percent change at the end of each experiment” value in series [1] (HF1400 hemodiafilter) is 19.6% and 20.9% and 18.6% and 20.0% and 18.2%; in series [1] (M150 hemodiafilter), 17.5% and 19.5% and 21.7% and 18.0% and 17.0% and 22.0%. The Mean sieving coefficient is 1.08 ± 0.03 in series [2] (HF1400, ultrafiltration rate 16.7 mL/min); 1.09 ± 0.05 in series [2] (HF1400, ultrafiltration rate 33.3 mL/min); 1.08 ± 0.07 in series [2] (HF1400, ultrafiltration rate 50 mL/min); 1.00 ± 0.05 in series [2] (M150, ultrafiltration rate 16.7 mL/min); 1.04 ± 0.10 in series [2] (M150, ultrafiltration rate 33.3 mL/min); 1.05 ± 0.04 in series [2] (M150, ultrafiltration rate 50 mL/min). Further, the “Saturation coefficient (mean ± SD)” value amounted to 1.04 ± 0.07 in series [3] (HF1400, Qd 16.7 mL/min); 1.19 ± 0.09 in series [3] (HF1400, Qd 33.3 mL/min); 1.17 ± 0.11 in series [3] (HF1400, Qd 50 mL/min); 1.17 ± 0.19 in series [3] (HF1400, Qd 100 mL/min); 1.08 ± 0.08 in series [3] (M150, Qd 16.7 mL/min); 1.16 ± 0.04 in series [3] (M150, Qd 33.3 mL/min). Moreover, the “Saturation coefficient (mean ± SD)” value in series [3] (M150, Qd 50 mL/min) amounted to 1.15 ± 0.15; in series [3] (M150, Qd 100 mL/min) it was 1.35 ± 0.20. In addition, the “mean SA values” in series [3] (low effluent flow rates (16-50 mL/min)) was “approximately unity”.

As to `C[C@@H](O)[C@H]1C(=O)N2C(C(=O)O)=C(S[C@@H]3CN[C@H](C(=O)N(C)C)C3)[C@H](C)[C@H]12` [Meropenem, meropenem], the “time to peak concentration in blood after the start of the infusion” value in series [4] is about 1 h.
